Tests used:
Assay in all cases: KINOMEscan
Assay type in all cases: binding
Conditions in all cases: read-out: % control activity remaining
GAK = target: T1, GAK (Homo sapiens, UniProt O14976)
T1 construct: purchased Eurofins DiscoverX KINOMEscan
T1 sequence (O14976 1-1311): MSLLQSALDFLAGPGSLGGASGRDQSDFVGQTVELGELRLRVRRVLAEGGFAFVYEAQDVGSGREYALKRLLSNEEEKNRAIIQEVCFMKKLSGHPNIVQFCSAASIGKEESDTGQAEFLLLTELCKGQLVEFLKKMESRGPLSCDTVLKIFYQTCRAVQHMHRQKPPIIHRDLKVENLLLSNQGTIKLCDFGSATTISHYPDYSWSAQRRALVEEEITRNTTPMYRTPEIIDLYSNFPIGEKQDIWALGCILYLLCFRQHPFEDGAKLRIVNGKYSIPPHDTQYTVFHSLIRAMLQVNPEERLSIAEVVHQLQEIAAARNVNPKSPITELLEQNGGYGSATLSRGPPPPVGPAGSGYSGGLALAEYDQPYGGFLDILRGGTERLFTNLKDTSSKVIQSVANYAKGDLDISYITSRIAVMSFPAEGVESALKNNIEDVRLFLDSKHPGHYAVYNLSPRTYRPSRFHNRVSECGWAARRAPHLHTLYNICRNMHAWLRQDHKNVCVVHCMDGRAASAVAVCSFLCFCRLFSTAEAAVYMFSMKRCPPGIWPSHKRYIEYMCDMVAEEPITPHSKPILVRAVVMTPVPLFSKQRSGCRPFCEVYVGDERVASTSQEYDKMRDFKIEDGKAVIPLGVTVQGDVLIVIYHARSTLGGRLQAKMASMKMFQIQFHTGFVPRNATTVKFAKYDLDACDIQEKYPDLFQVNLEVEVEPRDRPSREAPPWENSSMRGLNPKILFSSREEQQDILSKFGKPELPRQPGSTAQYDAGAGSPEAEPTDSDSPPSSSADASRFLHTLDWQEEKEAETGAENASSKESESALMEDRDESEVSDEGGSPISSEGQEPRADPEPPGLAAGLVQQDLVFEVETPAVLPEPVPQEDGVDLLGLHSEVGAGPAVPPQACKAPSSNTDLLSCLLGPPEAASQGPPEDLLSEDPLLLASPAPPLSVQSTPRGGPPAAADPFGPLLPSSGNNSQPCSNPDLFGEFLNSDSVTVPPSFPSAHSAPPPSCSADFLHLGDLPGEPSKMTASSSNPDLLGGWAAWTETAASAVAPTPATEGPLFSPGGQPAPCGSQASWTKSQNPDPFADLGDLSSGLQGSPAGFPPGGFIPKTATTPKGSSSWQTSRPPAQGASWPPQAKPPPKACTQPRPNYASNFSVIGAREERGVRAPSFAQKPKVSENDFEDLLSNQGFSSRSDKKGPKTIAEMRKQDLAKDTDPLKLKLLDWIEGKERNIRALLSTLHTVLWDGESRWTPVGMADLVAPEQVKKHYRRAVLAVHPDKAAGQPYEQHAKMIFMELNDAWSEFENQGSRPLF

DDR1 = target: T2, DDR1 (Homo sapiens, UniProt Q08345)
T2 construct: purchased Eurofins DiscoverX KINOMEscan

PRKCI = target: T3, PRKCI (Homo sapiens, UniProt P41743)
T3 construct: purchased Eurofins DiscoverX KINOMEscan
T3 sequence (P41743 1-596): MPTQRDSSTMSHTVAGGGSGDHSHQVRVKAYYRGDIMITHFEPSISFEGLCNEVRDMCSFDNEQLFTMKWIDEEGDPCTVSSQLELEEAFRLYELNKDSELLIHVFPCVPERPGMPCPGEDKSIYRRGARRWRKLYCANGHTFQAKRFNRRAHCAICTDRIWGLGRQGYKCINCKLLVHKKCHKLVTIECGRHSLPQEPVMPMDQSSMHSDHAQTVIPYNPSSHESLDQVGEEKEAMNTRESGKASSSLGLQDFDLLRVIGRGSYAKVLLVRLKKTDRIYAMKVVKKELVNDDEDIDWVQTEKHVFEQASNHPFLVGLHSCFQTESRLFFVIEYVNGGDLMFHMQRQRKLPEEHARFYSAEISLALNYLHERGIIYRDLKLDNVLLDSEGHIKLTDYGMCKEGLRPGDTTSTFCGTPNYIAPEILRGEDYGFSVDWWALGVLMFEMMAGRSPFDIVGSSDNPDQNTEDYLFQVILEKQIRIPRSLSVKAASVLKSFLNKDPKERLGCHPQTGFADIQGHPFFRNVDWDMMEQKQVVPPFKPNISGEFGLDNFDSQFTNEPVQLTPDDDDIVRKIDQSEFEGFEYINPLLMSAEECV

EPHB6 = target: T4, EPHB6 (Homo sapiens, UniProt O15197)
T4 construct: purchased Eurofins DiscoverX KINOMEscan
T4 sequence (O15197 32-1021): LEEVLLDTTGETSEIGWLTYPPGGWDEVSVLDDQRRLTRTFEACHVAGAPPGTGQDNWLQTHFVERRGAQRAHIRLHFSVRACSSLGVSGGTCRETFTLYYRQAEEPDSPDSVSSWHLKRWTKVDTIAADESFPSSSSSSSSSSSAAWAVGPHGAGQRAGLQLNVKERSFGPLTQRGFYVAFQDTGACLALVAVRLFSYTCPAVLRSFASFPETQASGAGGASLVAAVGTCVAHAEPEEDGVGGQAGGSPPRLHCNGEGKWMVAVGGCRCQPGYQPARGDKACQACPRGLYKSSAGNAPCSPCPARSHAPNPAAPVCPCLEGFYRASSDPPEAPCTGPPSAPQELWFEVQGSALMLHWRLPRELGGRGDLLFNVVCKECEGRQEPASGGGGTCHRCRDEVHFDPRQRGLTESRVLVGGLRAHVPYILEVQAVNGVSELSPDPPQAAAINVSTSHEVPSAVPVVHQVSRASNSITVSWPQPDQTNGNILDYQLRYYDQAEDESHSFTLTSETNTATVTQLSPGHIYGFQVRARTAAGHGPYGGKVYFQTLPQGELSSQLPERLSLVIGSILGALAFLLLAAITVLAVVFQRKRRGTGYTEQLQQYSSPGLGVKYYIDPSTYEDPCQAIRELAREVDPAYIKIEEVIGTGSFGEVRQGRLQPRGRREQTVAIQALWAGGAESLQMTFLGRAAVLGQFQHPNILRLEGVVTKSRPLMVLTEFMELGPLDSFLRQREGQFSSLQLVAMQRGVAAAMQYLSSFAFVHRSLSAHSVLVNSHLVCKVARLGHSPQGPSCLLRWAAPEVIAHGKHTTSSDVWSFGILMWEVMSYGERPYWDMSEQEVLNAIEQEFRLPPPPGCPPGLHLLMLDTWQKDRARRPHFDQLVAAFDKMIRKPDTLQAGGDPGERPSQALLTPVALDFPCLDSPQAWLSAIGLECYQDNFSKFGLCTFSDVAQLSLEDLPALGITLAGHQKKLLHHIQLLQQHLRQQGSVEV

T2 sequence (Q08345 19-913): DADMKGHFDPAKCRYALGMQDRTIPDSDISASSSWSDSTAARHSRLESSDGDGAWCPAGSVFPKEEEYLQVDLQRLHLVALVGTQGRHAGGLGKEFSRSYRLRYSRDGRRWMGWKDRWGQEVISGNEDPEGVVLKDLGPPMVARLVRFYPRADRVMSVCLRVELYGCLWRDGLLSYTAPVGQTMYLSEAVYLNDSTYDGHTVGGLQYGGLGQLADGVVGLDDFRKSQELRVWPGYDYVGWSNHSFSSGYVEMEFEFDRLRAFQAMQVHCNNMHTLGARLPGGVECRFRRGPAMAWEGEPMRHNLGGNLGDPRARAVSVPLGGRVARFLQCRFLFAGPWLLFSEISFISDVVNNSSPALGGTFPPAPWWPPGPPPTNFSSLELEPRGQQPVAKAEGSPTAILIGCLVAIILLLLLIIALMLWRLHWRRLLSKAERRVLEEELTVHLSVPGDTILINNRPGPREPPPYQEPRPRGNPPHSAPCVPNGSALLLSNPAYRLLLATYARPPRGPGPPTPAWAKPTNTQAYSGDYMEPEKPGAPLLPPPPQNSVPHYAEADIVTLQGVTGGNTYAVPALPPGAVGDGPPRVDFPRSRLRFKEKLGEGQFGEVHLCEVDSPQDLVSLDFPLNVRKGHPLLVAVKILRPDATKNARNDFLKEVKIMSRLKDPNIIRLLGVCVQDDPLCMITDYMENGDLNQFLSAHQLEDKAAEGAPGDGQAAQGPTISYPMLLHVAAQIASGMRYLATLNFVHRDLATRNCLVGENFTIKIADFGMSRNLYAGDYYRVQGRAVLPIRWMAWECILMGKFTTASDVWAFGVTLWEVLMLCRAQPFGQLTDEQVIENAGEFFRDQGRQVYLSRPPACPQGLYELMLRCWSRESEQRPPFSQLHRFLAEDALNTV

Compound	remaining binding at 1 µM (GAK) [%]	remaining binding at 1 µM (DDR1) [%]	remaining binding at 1 µM (PRKCI) [%]	remaining binding at 1 µM (EPHB6) [%]
Clc1cc(NCC2CC2)c2ncc(-c3ccc4[nH]ncc4c3)n2n1 [compound 2, 6-Chloro-N-(cyclopropylmethyl)-3-(1H-indazol-5-yl)imidazo[1,2-b]pyridazin-8-amine]	8.8	22	88	68
O=C(CN1CCOCC1)N[C@H]1CC[C@H](Nc2cc(Cl)nn3c(-c4ccc5[nH]ncc5c4)cnc23)CC1 [compound 26]	10	100	100	89
CN1CCC(CNc2cc(Cl)nn3c(-c4cc5nc(Nc6ccccc6)[nH]c5cc4F)cnc23)CC1 [compound 31, 6-Chloro-3-(6-fluoro-2-(phenylamino)-1H-benzo[d]imidazol-5-yl)-N-((1-methylpiperidin-4-yl)methyl)imidazo[1,2-b]pyridazin-8-amine]	33	96	89	83

Reference: publication PMC6437697 (Journal of Medicinal Chemistry, 2019)
